In the test the test system is GBS laboratory strains. The experiment in a line: MBC90:MIC90 ratio method of determining antibiotic tolerance. The format is cell-based, Group B Streptococcus. The following applies: for Phenotype: by MBC:MIC ratio; for MBC: 24 h, ≧90% non-viable cells, plate counts after 24 h antibiotic; for MIC: ≧90% growth-inhibited, OD600. On the procedure: The inventors ascertained the incidence of antibiotic tolerance in GBS clinical isolates collected from cervicovaginal-rectal swabs, by investigating cell wall inhibitors used to eliminate GBS colonization in pregnant women before delivery as stated by the CDC guidelines. A ratio of the minimum bactericidal concentration (MBC) over minimum inhibitory concentration (MIC) after 24 h of antibiotic incubation or by determining quantitative kill curves has been used to define antibiotic tolerance previously.
The MBC:MIC ratio was calculated for laboratory strains using three β-lactam antibiotics (Penicillin G, Ampicillin, and Cefazolin) and a glycopeptide antibiotic (Vancomycin) (Table 1). Early-log phase cultures of GBS were treated with the individual antibiotics at a concentration of 0.25 to 512×MIC90. The optical density (OD600) of antibiotic treated cultures was used to determine the MIC90 after 24 h and a cell count was used to determine their MBC90. Susceptible, tolerant and intermediate strains were defined by their MBC:MIC ratio of ≦2:1, ≧32:1 and 4:1-16:1 respectively. […] The ratios characterized GBS strains A909 and 2603V/R as Susceptible, O90R as Tolerant, and NEM316 as Intermediate to Penicillin, Ampicillin, and Cefazolin. All four strains were susceptible to Vancomycin.
(I) Bacterial Strains and Culture Conditions. GBS strains A909 (serotype IA), 515 (serotype IA), NEM316 (serotype III), COHI (serotype III), 2603V/R (serotype V) and O90R (non-typable) were used in this study. E. coli Top10 cells were used for the recombination experiments. GBS was cultured in Todd Hewitt broth (THB) or Tryptic Soy 5% sheep blood (TS) media and E. coli in Luria-broth (LB) medium or agar. Antibiotics were used at the following concentrations: for GBS—penicillin G (MIC90 0.06 μg ml^−1), ampicillin (MIC90 0.12 μg ml^−1), vancomycin (MIC90 2 μg ml^−1), cefazolin (MIC90 1 μg ml^−1) and chloramphenicol (5 μg ml^−1); for E. coli—ampicillin (50 μg ml^−1) and chloramphenicol (5 μg ml^−1). Both GBS and E. coli cultures were grown at 37° C. (II) Tolerance Using the MBC:MIC Ratio Method. Three GBS laboratory strains (i.e., A909, NEM316, and O90R) were cultured overnight for 18 h at 37° C. in THB. Subcultures in THB were subsequently grown to exponential phase (OD600˜0.3; i.e. 5×10^5 cfu/ml) at 37° C. Cell cultures were then exposed to different concentrations of antibiotics (Penicillin G, Ampicillin, Cefozolin or Vancomycin). […] Cell cultures were dispersed every 18 h before OD600 was measured to determine the lowest concentration of antibiotic with 90% growth inhibition (MIC90). Antibiotic treated cells (8 μl) from each well were re-suspended into PBS (100 μl) and plated (54 μl) on TS agar plates and allowed to grow for an additional 24 h at 37° C. Cell count was performed to determine the lowest concentration of antibiotic with 90% killing of original inoculums (MBC90). (III) Penicillin Killing and Regrowth Tolerance Assay by Microbroth Dilution. Three GBS laboratory strains (i.e., A909, NEM316, and O90R) were cultured overnight for 18 h at 37° C. in THB. Subcultures in THB were subsequently grown to exponential phase (OD600˜0.3) at 37° C. Cell cultures were then exposed to different concentrations of Penicillin G (Sigma, St. Louis, Mo.). […] Cell cultures were dispersed. A 1:20 dilution of cells was re-plated into new wells containing fresh THB with 500 U Penase (to degrade residual penicillin). Cell cultures were allowed to re-grow for an additional 24 h at 37° C. before the OD600 was measured. (IV) Measuring Cell Viability by Determining ATP Concentration. GBS strains were cultured for 18 h at 37° C. in THB. These cells were inoculated into fresh THB and subsequently allowed to grow to exponential phase (OD600 0.25-0.3) at 37° C. One ml of each culture was centrifuged at 5,000×g for 4 min. The cell pellet was re-suspended in ATP-free water. […]

The mark [1] stands for this setting: Streptococcus, GBS strain 2603V/R.
Where [2] appears, read: Streptococcus, GBS strain NEM316.

The MBC is the smallest concentration meeting the test's criterion for killing. Usually MIC stands for the least concentration at which growth counts as inhibited. Usually MIC90 stands for an inhibitory concentration at the 90% level, which refers to growth in some studies and to a panel of isolates in others. Take `CC1(C)S[C@@H]2[C@H](NC(=O)Cc3ccccc3)C(=O)N2[C@H]1C(=O)O` [Penicillin G]: the “Ratio (MBC90:MIC90)” value reads like this: (GBS strain 2603V/R) 1; (GBS strain A909) 1; (GBS strain NEM316) 8; (GBS strain O90R) 32. The Phenotype entry (GBS strain 2603V/R) is on record as “S (MBC:MIC ratio of ≦2:1)”; the Phenotype result (GBS strain 2603V/R, listed as Penicillin) is listed as “Susceptible”; the Phenotype entry (GBS strain A909) is given as “S (MBC:MIC ratio of ≦2:1)”; the Phenotype result (GBS strain A909, listed as Penicillin) is recorded as “Susceptible”; the Phenotype result (GBS strain NEM316) is on record as “I (4:1-16:1)”; the Phenotype entry (GBS strain NEM316, listed as Penicillin) is “Intermediate”. The Phenotype entry is, setting by setting: (GBS strain O90R) “PT (≧32:1)”; (GBS strain O90R, listed as Penicillin) “Tolerant”. The MBC under setting [1] was found to be 0.06 µg/mL; the MBC (Streptococcus, GBS strain A909) is 0.06 µg/mL; the MBC under setting [2] was 0.48 µg/mL; the minimal bactericidal concentration (MBC) (Streptococcus, GBS strain O90R) worked out at 3.84 µg/mL. The MIC by setting is: under setting [1], 0.06 µg/mL; (Streptococcus, GBS strain A909) 0.06 µg/mL; under setting [2], 0.06 µg/mL; (Streptococcus, GBS strain O90R) 0.12 µg/mL. Besides, the MIC90 (Streptococcus, for GBS, as stated under culture conditions) turned out to be 0.06 µg/mL.

(Values after patent US8247170B2, “Detection of penicillin tolerance in Group B Streptococcus: single nucleotide polymorphisms in penicillin binding protein 4” (priority 2008, dated 2012).)
